Entries after “also recorded” stand apart in the source; their conditions may differ. Read-outs that look alike come from different tables or passages of the source.
Tests used:
[1] = test system: resting pan-T cells; assay type: cell-based, human
[2] = test system: IFITM1; assay type: cell-based, human
[3] = test system: resting pan-T cells
[4] = test system: IFITM1; assay type: cell-based, human; remark: listed apart in the source
[5] = test system: CD8+ cells; assay type: cell-based, human
[6] = test system: IFITM1; assay type: cell-based, human; remark: listed apart in the source
[7] = test system: phosphorylated SAMHD1 (pSAMHD1); assay type: cell-based, human; conditions: CD4+ and CD8+ T cells; for proportion of pSAMHD1 to total SAMHD1: IL-7 15 ng/mL, IL-15 15 ng/mL or both
Experimental: The effect of IL-7 and IL-15 on phosphorylated SAMHD1 (pSAMHD1) and IFITM1 expression was assessed. CD4+ and CD8+ T cells were treated with either IL-2 (100 U/mL), IL-15 (15 ng/mL), IL-7 (15 ng/mL), or a composition comprising both IL-7 and IL-15. Cells were activated with anti-CD3/[…] antibody coated beads at a ratio of 3:1, and then cells were assessed for expression of IFITM1 or pSAMHD1. Aggregate densitometry across multiple donors are shown in FIG. 3A (CD8+) and FIG. 3B (CD4+), while representative western blots are also depicted in FIG. 3C (CD8+) and FIG. 3D (CD4+).

[8] = test system: IFITM1; assay type: cell-based, human; remark: listed apart in the source
[9] = test system: resting pan-T cells; assay type: cell-based, human; remark: listed apart in the source
[10] = test system: pSAMHD1; assay type: cell-based, human
[11] = test system: Nalm6 cells

Q: With `C[C@@H]1[C@H](O)[C@@H](C)/C=C/C=C/C=C/C=C/C=C/C=C/C=C/[C@H](O[C@@H]2O[C@H](C)[C@@H](O)[C@H](N)[C@@H]2O)C[C@@H]2O[C@](O)(C[C@@H](O)C[C@@H](O)[C@H](O)CC[C@@H](O)C[C@@H](O)CC(=O)O[C@H]1C)C[C@H](O)[C@H]2C(=O)O` [AmphoB, Amphotericin B] as the compound, how does the “concentrations at which gain in transduction efficiency is seen” value [1] read?
A: Its value is no less than 0.1 µM.

Q: And the “transduction efficiency (% GFP)” value [1]?
A: Its value is “increased transduction efficiency”.

Q: And the “restriction factor IFITM1 (western blot)” value [2]?
A: Its value is “inactivation or loss”.

Q: And the “CD8 and CD4 cell number” value [3]?
A: Its value is “slightly reduced”.

Q: What does the source list for `CO[C@H]1C[C@@H]2CC[C@@H](C)[C@@](O)(O2)C(=O)C(=O)N2CCCC[C@H]2C(=O)O[C@H]([C@H](C)C[C@@H]2CC[C@@H](OC(=O)C(C)(CO)CO)[C@H](OC)C2)CC(=O)[C@H](C)/C=C(\C)[C@@H](O)[C@@H](OC)C(=O)[C@H](C)C[C@H](C)/C=C/C=C/C=C/1C` [TEM, temsirolimus]?
A: IFITM1 protein expression [4]: pronounced loss of IFITM1 protein expression; transduction efficiency (viral copy number per diploid genome) [5]: Increased transduction efficiency; transduction of the GFP transgene (% GFP) [1]: enhance transduction; CD3 number [3]: remained generally consistent; CD8 and CD4 T-cells (cell counts) [3]: reduced

Q: What does the source list for `CO[C@H]1C[C@@H]2CC[C@@H](C)[C@@](O)(O2)C(=O)C(=O)N2CCCC[C@H]2C(=O)O[C@H]([C@H](C)C[C@@H]2CC[C@@H](O)[C@H](OC)C2)CC(=O)[C@H](C)/C=C(\C)[C@@H](O)[C@@H](OC)C(=O)[C@H](C)C[C@H](C)/C=C/C=C/C=C/1C` [rapamycin]?
A: downregulation of IFITM1 expression [6]: 20-35%; reduction of IFITM1 expression [6]: 5-40%

Q: What does the source list for IL-7: recombinant cytokine?
A: levels of pSAMHD1 ([7]; IL-7 15 ng/mL pre-treatment): increased levels of pSAMHD1; proportion of pSAMHD1 to total SAMHD1 [7]: increased; IFITM1 expression [8]: similarly increased; transduction efficiency (% GFP) [9]: did not lead to dose-dependent differences in transduction efficiency; pSAMHD1 levels [10]: increase in pSAMHD1 levels; transduction efficiency (% GFP) with cytokine pretreatment [1]: positively impact transduction; also recorded: increased transduction efficiency; cytotoxicity (Nalm6 loss related to untransduced controls) [11]: Increased cytotoxicity

Q: Which results are given for IL-15: recombinant cytokine?
A: proportion of pSAMHD1 to total SAMHD1 [7]: increased; IFITM1 expression [8]: similarly increased
